What all share (experiment): 8-[Fluo]-cAMP Fluorescence Polarization Binding Assay
For orientation: In fluorescence polarisation assays a small probe gives low polarisation when free and higher when bound to something large.

For experiment [1], the target named is cAMP-dependent protein kinase type I-alpha regulatory subunit [R243A] (Homo sapiens, UniProt P10644, R243A). The protocol: (§1) The ability of the R subunit basic patch mutants to bind cAMP in the absence of the C subunit was tested using the fluorescent cAMP analogue, 8-[fluo]-cAMP (Biolog), used at a final concentration of 10 nM. Wells were titrated with a rangeof R subunit concentrations (from 0 to 125 nM), which were diluted with FP assay buffer.
Sequence of cAMP-dependent protein kinase type I-alpha regulatory subunit [R243A] (P10644 whole entry R243A): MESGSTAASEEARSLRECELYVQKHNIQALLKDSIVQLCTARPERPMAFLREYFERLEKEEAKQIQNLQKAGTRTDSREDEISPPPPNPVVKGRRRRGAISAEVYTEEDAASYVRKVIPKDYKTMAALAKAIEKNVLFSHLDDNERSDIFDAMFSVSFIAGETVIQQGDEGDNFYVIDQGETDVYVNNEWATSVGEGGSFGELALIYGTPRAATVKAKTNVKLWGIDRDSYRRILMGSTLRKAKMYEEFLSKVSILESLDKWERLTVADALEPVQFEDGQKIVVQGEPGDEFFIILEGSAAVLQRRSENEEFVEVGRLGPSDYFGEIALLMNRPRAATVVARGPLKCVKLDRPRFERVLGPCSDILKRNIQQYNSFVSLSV

The target in experiment [2] is cAMP-dependent protein kinase type I-alpha regulatory subunit [R241A] (Homo sapiens, UniProt P10644, R241A). The protocol:
as §1

Experiment [3] addresses cAMP-dependent protein kinase type I-alpha regulatory subunit [K244A] (Homo sapiens, UniProt P10644, K244A). The protocol:
as §1

Experiment [4] deals with cAMP-dependent protein kinase type I-alpha regulatory subunit [K242A] (Homo sapiens, UniProt P10644, K242A). The protocol: as §1
Sequence of cAMP-dependent protein kinase type I-alpha regulatory subunit [K242A] (P10644 whole entry K242A): as the sequence (P10644 whole entry R243A) above, with K242A, A243R counted along it
Experiment [5] deals with cAMP-dependent protein kinase type I-alpha regulatory subunit (Homo sapiens, UniProt P10644). The protocol: as §1
Sequence of cAMP-dependent protein kinase type I-alpha regulatory subunit (P10644 whole entry): as the sequence (P10644 whole entry R243A) above, with A243R counted along it

Here are results for one compound from BindingDB's records for doi:10.1021/acs.biochem.6b01152 (University of California San Diego, 2017).

A word on the Kd: it is a measure of binding affinity in units of concentration. A low value points to a tighter complex.

Sequence of cAMP-dependent protein kinase type I-alpha regulatory subunit [R241A] (P10644 whole entry R241A): as the sequence (P10644 whole entry R243A) above, with R241A, A243R counted along it
Sequence of cAMP-dependent protein kinase type I-alpha regulatory subunit [K244A] (P10644 whole entry K244A): as the sequence (P10644 whole entry R243A) above, with A243R, K244A counted along it

Take `Nc1ncnc2c1nc(SCCNC(=S)Nc1ccc(-c3c4ccc(=O)cc-4oc4cc(O)ccc34)c(C(=O)O)c1)n2C1OC2COP(=O)(O)OC2C1O` (stereo not given) [8-[Fluo]-cAMP]: the Kd in experiment [1] was 7.29 nM; in experiment [2] it was 6.72 nM; in experiment [3], 7.71 nM; in experiment [4] it was 7.32 nM; in experiment [5], 7.3 nM.
